Source: patent US6331555A, “Treatment of platelet derived growth factor related disorders such as cancers” (priority 1999, dated 2001)
Like-named read-outs stand apart in the source and are kept apart here.

How the values were obtained:
C6 cells = assay: C6 SRB growth assay; assay type: cell-based, rat
HER2 = assay: Receptor tyrosine kinase inhibition, HER2; assay type: cell-based; conditions: for IC50: read-out: HER2 IC50
Method in brief: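 For ELISA, cells kept overnight in 0.5% serum were switched to serum-free medium, given compound for 2 h at 37 °C, then ligand-stimulated for 5–10 min. Lysates were captured on receptor-specific antibody plates and probed with anti-phosphotyrosine antibody. For western blots, cells in 1% FBS received ligand for 7 min at room temperature before anti-phosphotyrosine immunoblotting.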

C6 glioma cells = assay: C6 glioma SC xenograft in mice; assay type: in vivo; conditions: for inhibition in vivo at 15 mg/kg: Rattus norvegicus, C6 glioma, sc, read-out: C6 in vivo EFFICACY
Method in brief: (§1)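 C6 (3×10^6) or SKOV-3 (1×10^7) cells in PBS were implanted into the hind flank of female Balb/c nu/nu mice on Day 0; U87MG and U118MG went into athymic mice. Tumors were caliper-measured over 3–6 weeks, with volume as length×width×height. P values came from Student's t-test.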

[1] = C6 glioma SC xenograft in mice; assay type: in vivo; conditions: rat, in vivo, ip; for mortality at 336 h: 15 mg/kg
Method in brief: as §1

[2] = Rattus norvegicus, C6; read-out: C6 SRB IC50

COc1cc2ncc(-c3ccccc3)nc2cc1OC [Compound G14]
IC50 (C6 cells; [2]): > 50 µM
HER2 phosphorylation (HER2): do not effect EGF or HER2 phosphorylation
inhibition in vivo at 15 mg/kg (C6 glioma cells; at 15 mg/kg): 36%
mortality at 336 h [1]: 0%

c1ccc(-c2cnc3cc4ccccc4cc3n2)cc1 [Compound G22]
IC50 (C6 cells; [2]): > 6 µM
IC50 (HER2): > 50 µM
C6 in vivo EFFICACY (C6 glioma cells; at 20 mg/kg): no effect
mortality ([1]; 20 mg/kg): 0%

Cc1oncc1C(=O)Nc1ccc(C(F)(F)F)cc1 [Compound A10, 5-methylisoxazole-4 carboxylic acid-(4-trifluromethyl)-anilide]
IC50 (C6 cells; Rattus norvegicus, C6; PDGF-R expression ++; read-out: SRB): 0.3 µM
HER2 phosphorylation (HER2): little if any effect on EGF-receptor or HER2 phosphorylation
inhibition in tumor growth (C6 glioma cells; 15 mg/kg/day (DMSO), after 20 days): greater than 90%
% Inhibition (C6 glioma cells; 15 mg/kg/day, DMSO): 90%
% Inhibition (C6 glioma cells; 15 mg/kg/day, PBTE): 92%
% Inhibition (C6 glioma cells; 20 mg/kg (DMSO), 2 days): 77%
% Inhibition (C6 glioma cells; 20 mg/kg (DMSO), 4 days): 60%
% Inhibition (C6 glioma cells; 20 mg/kg (PBTE:D5W), daily): > 95%
% Inhibition (C6 glioma cells; 20 mg/kg, PBTE:D5W): > 95%
% Inhibition (C6 glioma cells; 20 mg/kg/day, DMSO): 95%
% Inhibition (C6 glioma cells; 20 mg/kg/day, PBTE): > 95%
% Inhibition (C6 glioma cells; 30 mg/kg (DMSO), 2 days): 91%
% Inhibition (C6 glioma cells; 30 mg/kg (DMSO), 3 days): 87%
% Inhibition (C6 glioma cells; 40 mg/kg (PBTE), 2 days): > 95%
% Inhibition (C6 glioma cells; 40 mg/kg/2 days, PBTE): > 95%
% Inhibition (C6 glioma cells; 60 mg/kg (PBTE), weekly): 51%
% Inhibition (C6 glioma cells; 100 mg/kg (PBTE), weekly): 63%
efficacy of formulations (C6 glioma cells; PBTE, PBTE:D5W and DMSO): equivalent in vivo inhibition of tumor growth
% Inhibition (C6 glioma cells; nu/nu, 20 mg/kg/day, day 21): > 95%
% Inhibition (C6 glioma cells; nu/nu†, 20 mg/kg/day, day 18, delayed start): 84%
In Vivo inhibition (C6 glioma cells; xenografted athymic mice): 95%

Cc1cc2ncc(-c3ccccc3)nc2cc1C [Compound G13]
IC50 (C6 cells; Rattus norvegicus, C6, read-out: C6 SRB IC50): > 50 µM
HER2 phosphorylation (HER2): do not effect EGF or HER2 phosphorylation
IC50 (HER2): > 50 µM
inhibition in vivo at 15 mg/kg (C6 glioma cells): 12%
mortality at 336 h [1]: 0%

O=c1c2ccccc2nc(C=Cc2ccc(O)c(O)c2)n1CCO [Compound F10]
IC50 (C6 cells; [2]): > 12.5 µM

N#CC(=Cc1c[nH]c2ccccc12)c1[nH]nc(N)c1C#N [Compound D14]
HER2 phosphorylation (HER2): do not effect EGF or HER2 phosphorylation
IC50 (HER2): > 50 µM
